In patent publication US20180355326A1, “CYTOCHROME P450 AND CYTOCHROME P450 REDUCTASE POLYPEPTIDES, ENCODING NUCLEIC ACID MOLECULES AND USES THEREOF” (UNIVERSITY OF BRITISH COLUMBIA, priority 2012, published 2018):

Key:
[1] = system: SaCYP76F38v1 (SaCYP76-G5); assay: Oxidation of various mono- and sesquiterpene substrates by yeast microsomes containing SaCYP76F38v1; assay type: biochemical, Santalum album; conditions: 60 to 80 μM of the terpene substrate, 30° C., 1 hour, GC-MS, compared to vector control
Description: The reaction mixtures contained 50 mM potassium phosphate, 0.8 mM NADPH and 60 to 80 μM of the terpene substrate in a total volume of 350 μL. Enzyme reactions were started by adding 50 μL of the microsome preparation, incubated at 30° C. for 1 hour with shaking and stopped by extraction with 500 μL of hexane/ethyl acetate (85:15). The organic layer was concentrated under a gentle stream of N2 gas to about 100 μL and analyzed by GC-MS analysis as described in Example 6. […] The reaction products were identified based on matches of the MS fragmentation patterns with entries in the NIST and Wiley libraries (Wiley Registry® 9th Edition/NIST 2011; Fred W. McLafferty, John Wiley & Sons, Inc.).

[2] = molecular target: T1, SaCYP76F39v1 (SaCYP76-G10) (Santalum album, UniProt V5RH69); assay: Oxidation of various mono- and sesquiterpene substrates in vitro by SaCYP76F39v1; conditions: product formation the same as that catalyzed by CYP76-G5
Description: The reaction mixtures contained 50 mM potassium phosphate, 0.8 mM NADPH and 60 to 80 μM of the terpene substrate in a total volume of 350 μL. Enzyme reactions were started by adding 50 μL of the microsome preparation, incubated at 30° C. for 1 hour with shaking and stopped by extraction with 500 μL of hexane/ethyl acetate (85:15). […] The reaction products were identified based on matches of the MS fragmentation patterns with entries in the NIST and Wiley libraries (Wiley Registry® 9th Edition/NIST 2011; Fred W. McLafferty, John Wiley & Sons, Inc.).

[3] = molecular target: T1, SaCYP76F39v1 (SaCYP76-G10); assay: In vitro assay 2, microsomes containing SaCYP76F39v1 with a mixture of santalenes and bergamotene; assay type: biochemical; conditions: substrate mixture of santalenes and bergamotene; no product in the absence of NADPH or with empty vector microsomes
Description: (§1) Assays were performed in 400 μL reaction volumes containing 50 mM potassium phosphate pH 7.5, 0.8 mM NADPH and 40 μM of substrate. Enzyme reactions were initiated by adding 50 μL of the microsomes preparation (prepared in Example 8), incubated at 30° C. for 2 hours with shaking and stopped by adding 500 μL hexane.
Microsomes containing SaCYP76F39v1 (SaCYP76-G10) were assayed for their activity using the assay described in Section B. above.

[4] = molecular target: T1, SaCYP76F39v1 (SaCYP76-G10); assay: Substrate specificity, yeast microsomes containing SaCYP76F39v1 with various sesquiterpenes; assay type: biochemical; conditions: 40 μM of substrate, 30° C., 2 hours; for activity at 40 µM: rate of product formation relative to product formation by SaCYP76F39v1 with β-santalene
Description: as §1
(§2) To test the range of substrates used by the clade I and clade II SaCYP76F enzymes, yeast microsomes containing SaCYP76F37v1 (SaCYP76-G11) and SaCYP76F39v1 (SaCYP76-G10) were assayed for their ability to convert various sesquiterpenes, including the substrates α-santalene and β-santalene and 7 additional sesquiterpenes which resemble santalenes in the acyclic isoprenyl side chain, including α-curcumene, zingiberine, β-bisabolene, β-sesquiphellandrene, α-bisabolol, trans-β-farnesene and trans-nerolidol. Each substrate was tested using the in vitro assay described in Example 11.B.1.b above.
(§3) The results are shown in Table 15 below, which sets forth the substrates, including their structures, and the relative activities which represent the rate of product formation relative to product formation by SaCYP76F39v1 (SaCYP76-G10) with β-santalene.

[5] = molecular target: T2, SaCYP76F37v1 (SaCYP76-G11) (Santalum album, UniProt V5RGC8); assay: Substrate specificity, yeast microsomes containing SaCYP76F37v1 with various sesquiterpenes; assay type: biochemical; conditions: 40 μM of substrate, 30° C., 2 hours; for activity at 40 µM: rate of product formation relative to product formation by SaCYP76F39v1 with β-santalene
Description: as §1, §2, §3

[6] = molecular target: T2, SaCYP76F37v1 (SaCYP76-G11); assay: Oxidation of individual sesquiterpenes by microsomes containing SaCYP76F37v1; assay type: biochemical; conditions: partially purified substrate fraction, GC-MS
Description: as §1
(§4) Microsome preparations containing candidate P450 were assayed for their capacity to oxidize individual sesquiterpenes. The sesquiterpenes were isolated as described in Example 9 above. Three fractions containing mainly α-santalene, α-trans-bergamotene, or epi-β-santalene and β-santalene were used as individual substrates in assays containing clade I P450 SaCYP76F39v1 (SaCYP76-G10) or clade II P450 SaCYP76F37v1 (SaCYP76-G11). The assays were performed as described in Section B.1.b. above and products were identified by comparison to authentic standards (see Table 12 and FIG. 20G).

[7] = molecular target: T1, SaCYP76F39v1 (SaCYP76-G10); assay: Oxidation of individual sesquiterpenes by microsomes containing SaCYP76F39v1; assay type: biochemical; conditions: partially purified substrate fraction, GC-MS
Description: as §1, §4

[8] = system: SaCYP76F38v1 (SaCYP76-G5); assay: Coupled enzyme assay with SaSSy and FPP, microsomes containing SaCYP76F38v1; assay type: biochemical, Santalum album; conditions: in vitro reaction products of SaSSy and 70 μM FPP, 0.8 mM NADPH, 30° C., 1 hour
Description: Coupled enzyme assays with S. album santalene synthase (SaSSy) expressed in bacteria (Jones et al. (2011) J Biol Chem 286:17445-17454) were initiated with 50 μg of His6-tag purified SaSSy and 70 μM farnesyl pyrophosphate (FPP) in TPS buffer (25 mM HEPES pH 7.5, 5 mM MgCl2, 1 mM DTT) in a volume of 450 μL. The assays were incubated for 30 min at 30° C. followed by the addition of 50 μL of the microsome preparation containing a S. album cytochrome P450 and a cytochrome P450 reductase and 0.8 mM NADPH. The reaction was incubated for an additional 1 hour at 30° C. and was stopped by extraction with 500 μL hexane/ethyl acetate (85:15).

[9] = substrate: CC(C)=CCC[C@]1(C)C2C[C@@H]3[C@H](C2)C31C; assay: Kinetic assay with α-santalene or β-santalene as the substrate, SaCYP76F39v1; assay type: biochemical, Santalum album; conditions: other: apparent Km, 17 pmol P450, substrate 12 to 138 μM, 0.8 mM NADPH, pH 7.5, 30° C., 20 minutes
Description: (§5) To test the kinetics of the clade I and clade II SaCYP76F enzymes, kinetic assays were performed with SaCYP76F37v1 (SaCYP76-G11) and SaCYP76F39v1 (SaCYP76-G10) with α-santalene or β-santalene as the substrate. Assays were performed in 400 μL reaction volumes containing 50 mM potassium phosphate pH 7.5, 0.8 mM NADPH and substrate concentrations of 12 to 138 μM of α-santalene or β-santalene. Enzyme reactions were initiated by adding either 17 pmol of SaCYP7639v1 or 35 pmol of SaCYP7637v1, incubated at 30° C. for 20 minutes with shaking and stopped by adding 500 μL hexane. […] Kinetic data were evaluated using tools described in Hernandez and Ruiz ((1998) Bioinformatics. 14:227-228).
(§6) The apparent Km values, kcat values and kcat/Km values for SaCYP76F39v1 (SaCYP76-G10) and SaCYP76F37v1 (SaCYP76-G11) with α-santalene and β-santalene are set forth in Table 14 below.

[10] = substrate: C=C1[C@@H]2CC[C@@H](C2)[C@@]1(C)CCC=C(C)C; assay: as above; assay type: biochemical, Santalum album; conditions: other: apparent Km, 17 pmol P450, substrate 12 to 138 μM, 0.8 mM NADPH, pH 7.5, 30° C., 20 minutes
Description: as §5, §6

[11] = substrate: CC(C)=CCC[C@]1(C)C2C[C@@H]3[C@H](C2)C31C; assay: Kinetic assay with α-santalene or β-santalene as the substrate, SaCYP76F37v1; assay type: biochemical, Santalum album; conditions: other: apparent Km, 35 pmol P450, substrate 12 to 138 μM, 0.8 mM NADPH, pH 7.5, 30° C., 20 minutes
Description: as §5, §6

[12] = substrate: C=C1[C@@H]2CC[C@@H](C2)[C@@]1(C)CCC=C(C)C; assay: as above; assay type: biochemical, Santalum album; conditions: other: apparent Km, 35 pmol P450, substrate 12 to 138 μM, 0.8 mM NADPH, pH 7.5, 30° C., 20 minutes
Description: as §5, §6

## CC(C)=CCC[C@](C)(O)C1CC=C(C)CC1 (stereo partly shown) [bisabolol]
[1]
  Products of reaction with SaCYP76F38v1: one product
[2]
  Hydroxylation by CYP76-G10 in vitro: catalyzed the hydroxylation

## C=C1C2CCC(C2)[C@@]1(C)CCC=C(C)C (stereo partly drawn) [epi-β-santalene]
[3]
  Hydroxylation by SaCYP76F39v1: catalyzed the hydroxylation

## C=CC(C)(O)CCC=C(C)C (stereo not shown) [linalool]
[1]
  Products of reaction with SaCYP76F38v1: two products
[2]
  Hydroxylation by CYP76-G10 in vitro: catalyzed the hydroxylation

## C=CC(C)(O)CCC=C(C)CCC=C(C)C (stereo not shown) [nerolidol]
[1]
  Products of reaction with SaCYP76F38v1: two products

## C=CC(=C)CC/C=C(\C)CCC=C(C)C [trans-farnesene]
[4]
  Use as a substrate by SaCYP76F39v1 (in words): did not use
  activity at 40 µM: 0%
[5]
  activity at 40 µM: 0%

## C=CC(C)(O)CC/C=C(\C)CCC=C(C)C (stereo not drawn) [trans-nerolidol]
[4]
  Use as a substrate by SaCYP76F39v1 (in words): did not use
  activity at 40 µM: 0%
[5]
  Use as a substrate by SaCYP76F37v1 (in words): selectively active
  activity at 40 µM: 11.3%

## CC(C)=CCCC(C)C1C=CC(C)=CC1 (stereo not shown) [zingiberene]
[4]
  Use as a substrate by SaCYP76F39v1 (in words): did not use
  activity at 40 µM: 0%
[5]
  activity at 40 µM: 0%

## CC(C)=CCCC(C)(O)C1CC=C(C)CC1 (stereo not drawn) [α-bisabolol]
[4]
  Use as a substrate by SaCYP76F39v1 (in words): low activity
  activity at 40 µM: 9.4%
[5]
  activity at 40 µM: 0%

## CC(C)=CCCC(C)c1ccc(C)cc1 (stereo not drawn) [α-curcumene]
[4]
  Use as a substrate by SaCYP76F39v1 (in words): did not use
  activity at 40 µM: 0%
[5]
  activity at 40 µM: 0%

## CC(C)=CCC[C@]1(C)C2C[C@@H]3[C@H](C2)C31C [α-santalene]
[6]
  Products formed with SaCYP76F37v1: only (E)-α-santalol
[3]
  Hydroxylation by SaCYP76F39v1: catalyzed the hydroxylation
[7]
  Products formed with SaCYP76F39v1: (Z)- and (E)-α-santalol
[4]
  activity at 40 µM: 99.8%
[5]
  activity at 40 µM: 17.3%

## CC(C)=CCCC1(C)C2CC=C(C)C1C2 (stereo not drawn) [α-trans-bergamotene]
[6]
  Products formed with SaCYP76F37v1: only (E)-α-trans-bergamotol
[8]
  Hydroxylation/oxidation by SaCYP76F38v1: catalyzed the hydroxylation
[3]
  Hydroxylation by SaCYP76F39v1: catalyzed the hydroxylation
[7]
  Products formed with SaCYP76F39v1: (Z)- and (E)-α-trans-bergamotol

## C=C(CCC=C(C)C)C1CC=C(C)CC1 (stereo not drawn) [β-bisabolene]
[4]
  Use as a substrate by SaCYP76F39v1 (in words): did not use
  activity at 40 µM: 0%
[5]
  activity at 40 µM: 0%

## C=C1[C@@H]2CC[C@@H](C2)[C@@]1(C)CCC=C(C)C [β-santalene]
[3]
  Hydroxylation by SaCYP76F39v1: catalyzed the hydroxylation
[4]
  activity at 40 µM: 100%
[5]
  activity at 40 µM: 17.7%

## C=C1C=CC(C(C)CCC=C(C)C)CC1 (stereo not drawn) [β-sesquiphellandrene]
[4]
  Use as a substrate by SaCYP76F39v1 (in words): did not use
  activity at 40 µM: 0%
[5]
  activity at 40 µM: 0%

B1: SaCYP76F39v1 (SaCYP76-G10) (Santalum album) (protein)
chain: MDFLSCILFVLFAWALVRALPTLSRGSKAASGRLPPGPVPWPVVGNLLKLGNKPHKSLAELAKSYGPIMCLKLGHMTTIVISTPTVAKEVLQKQDVAFSNRTTPDAVRAHGHDLYSMAWLPVSTRWRTLRKISNSHIFTSQRLDENHHLRRRKLDELLARVAESSLVGAVVDMGAVAFLTSLNLLSNTVFSKDLVEPGLGAVQETKEVVWGMMEEAGRPNLVDYFPVLRRLDPQGIRRRMTGYFGKMLEVFGDIIDERLEWRKQQSDGDSPAGTTNDVLDVLLNIIEDAEIEEKPNRTDVEHFLLDLFAAGSDTTSSTVEWAMTELLRKPETLERARSELHETIGPENLVQEADLPRLPYLQAVVKETFRLHPPVPLLLPRTAEKDAELCGFTVPAGAQIMVNAWAIGRDPGTWEDPESFLPERFLGSDVDVKGRSFELIPFGGGRRICPGLPLAIRMVHLMLGSLIHGFRWKVDDDGMGSPETAMDMDEKFGITLQKAKPLCAVPIRG
[9]
  Km: 25.92 ± 0.11 µM
  kcat: 1.12 s⁻¹
  kcat/Km: 43000 M⁻¹ s⁻¹
[10]
  Km: 34.82 ± 0.41 µM
  kcat: 1.17 s⁻¹
  kcat/Km: 33000 M⁻¹ s⁻¹

B2: SaCYP76F37v1 (SaCYP76-G11) (Santalum album) (protein)
chain: MDFLSCILSVLFAWALVRALPTLSRGSKAAGGRLPPGPVPLPVVGNLLKLGSKPHKSLAELAKSYGPIMCLKLGHIITIVISTPTVAKEVLQKQDVAFCNRTIPDAVRAHRHDLHSMVWLPVSTRWRTLRKISNSHIFSSQRLDENHHLRRRKLDELLTRVAESSLVGAVVDIGAVAFLTSLNLLSNTVFSKDLVEPGLGAVQEMEEVVWGITEEAGRPNLVDYFPVLRRLDPQGTRRRMMGYFGKMFEVFGDIIDERLEWRKQQSDGDSPAGTTNDVLDVLLNIIEDAEIEEKPNRTDVEHFLLDLFAAGSDTTSSTVEWAMTELLRKPETLERARSELHETIGPENLVQEADLPRLPYLQAVVKETFRLHPPVPLLLPRTAEKDAELCGFTVPAGAQIMVNAWAIGRDPGTWEDPESFLPERFLGSDVDVKGRSFELIPFGGGRRICPGLPLAIRMVHLMLGSLIHGFRWKVDDDGMGSPETAMDMDEKFGITLQKAKPLCAVPIRG
[11]
  Km: 133 ± 0.41 µM
  kcat: 0.2 s⁻¹
  kcat/Km: 1500 M⁻¹ s⁻¹
[12]
  Km: 157 ± 0.17 µM
  kcat: 0.13 s⁻¹
  kcat/Km: 810 M⁻¹ s⁻¹
